Patent US20250296959A1, “B7-H3 TARGETING PEPTIDES AND CONSTRUCTS THEREOF” (Mariana Oncology Inc., priority 2024, published 2025)
Starred links: 1 amine or outer side, 2 acyl side, 3 side chain; linkers in the order of their positions; H or OH if unused. Positions of bridges follow the written chain, without caps; N, C: chain ends. Non-standard residues stand in square brackets, D forms with d. Residues, ends and D or L forms follow the SMILES beside them. Groups on a side chain read outwards from the residue. *: point of attachment. Ala(piperidin-4-yl) = O=C([C@H](CC1CCN([*:3])CC1)N[*:1])[*:2]; X10 = C[C@@H](c1c[nH]c2ccc(F)cc12)[C@H](N[*:1])C(=O)[*:2]; DOTA = O=C(O)CN1CCN(CC(=O)O)CCN(CC(=O)*)CCN(CC(=O)O)CC1; Trp(5-Cl) = N[C@@H](Cc1c[nH]c2ccc(Cl)cc12)C(=O)O; Trp(5-F) = N[C@@H](Cc1c[nH]c2ccc(F)cc12)C(=O)O; γGlu = O=C(O)[C@H](CCC(=O)[*:2])N[*:1]; 1Nal = N[C@@H](Cc1cccc2ccccc12)C(=O)O; Ala(4-THP) = N[C@@H](CC1CCOCC1)C(=O)O; Phe(2-Me) = Cc1ccccc1C[C@H](N)C(=O)O; Val(3-OH) = CC(C)(O)[C@H](N)C(=O)O; PEG4 = NCCOCCOCCOCCOCCC(=O)O; Suc = O=C(CCC(=O)[*:2])[*:1]; Tle = CC(C)(C)[C@H](N)C(=O)O; hLeu = CC(C)CC[C@H](N)C(=O)O

molecular target: T1, human 4lg B7-H3 (Homo sapiens, UniProt Q5ZPR3); assay: Affinity determination by surface plasmon resonance (SPR) to 4Ig B7-H3; details: SPR KD—37° C., 4Ig B7-H3; 37° C. flow cell temperature
T1 sequence (Q5ZPR3 29-534): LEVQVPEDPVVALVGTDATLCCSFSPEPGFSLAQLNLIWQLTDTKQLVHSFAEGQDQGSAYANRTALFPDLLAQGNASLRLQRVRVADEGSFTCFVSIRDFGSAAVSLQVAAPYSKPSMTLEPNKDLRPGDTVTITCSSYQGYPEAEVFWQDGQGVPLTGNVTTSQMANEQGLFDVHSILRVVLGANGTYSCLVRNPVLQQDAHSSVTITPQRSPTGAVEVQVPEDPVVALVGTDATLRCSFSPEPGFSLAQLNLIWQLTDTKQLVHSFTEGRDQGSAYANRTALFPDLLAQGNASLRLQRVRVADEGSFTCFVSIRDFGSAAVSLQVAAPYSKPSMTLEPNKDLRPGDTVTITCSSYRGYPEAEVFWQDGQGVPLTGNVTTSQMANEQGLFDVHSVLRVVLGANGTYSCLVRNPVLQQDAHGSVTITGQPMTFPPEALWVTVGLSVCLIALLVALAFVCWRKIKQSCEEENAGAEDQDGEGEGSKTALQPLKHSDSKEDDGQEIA

Kd [nM] | Structure (SMILES)
< 1 | CC(=O)N[C@@H](CCC(C)C)C(=O)N[C@@H](Cc1ccc(O)cc1)C(=O)N[C@H]1CSSC[C@@H](C(=O)N[C@@H](Cc2c[nH]c3ccc(F)cc23)C(=O)N[C@@H](Cc2ccccc2)C(=O)N[C@H](C(=O)N[C@H](CCC(=O)O)C(=O)O)C(C)(C)O)NC(=O)[C@H](Cc2ccc(O)cc2)NC(=O)[C@H](C(C)C)NC(=O)[C@H](CC(=O)O)NC(=O)[C@H](CC2CCN(C(=O)CCOCCOCCOCCOCCNC(=O)CN3CCN(CC(=O)O)CCN(CC(=O)O)CCN(CC(=O)O)CC3)CC2)NC(=O)[C@H](CC2CCNCC2)NC(=O)CNC(=O)[C@H](C(C)(C)C)NC1=O [compound 448, Ac-hLeu-Y-C-Tbg-G-PipAla-Pip(PEG4-DOTA)Ala-D-V-Y-C-5FW-F-hydroxyVal-dGlu-COOH] (Ac-[hLeu]YC[Tle]G[Ala(piperidin-4-yl)][Ala(piperidin-4-yl)]([PEG4-DOTA])DVYC[Trp(5-F)]F[Val(3-OH)][dE]-OH; disulfide 3-11)
< 1 | CC(=O)N[C@@H](CCC(C)C)C(=O)N[C@@H](Cc1ccc(O)cc1)C(=O)N[C@H]1CSSC[C@@H](C(=O)N[C@@H](Cc2c[nH]c3ccc(F)cc23)C(=O)N[C@@H](Cc2ccccc2)C(=O)N[C@H](C(=O)N[C@H](CO)C(=O)O)C(C)(C)O)NC(=O)[C@H](Cc2ccc(O)cc2)NC(=O)[C@H](C(C)C)NC(=O)[C@H](CC(=O)O)NC(=O)[C@H](CC2CCN(C(=O)CN3CCN(CC(=O)O)CCN(CC(=O)O)CCN(CC(=O)O)CC3)CC2)NC(=O)[C@H](CC2CCNCC2)NC(=O)CNC(=O)[C@H](C(C)(C)C)NC1=O [compound 449, Ac-hLeu-Y-C-Tbg-G-PipAla-Pip(DOTA)Ala-D-V-Y-C-5FW-F-hydroxyVal-dSer-COOH] (Ac-[hLeu]YC[Tle]G[Ala(piperidin-4-yl)][Ala(piperidin-4-yl)](DOTA)DVYC[Trp(5-F)]F[Val(3-OH)][dS]-OH; disulfide 3-11)
1 to 10 | CC(=O)N[C@@H](CCC(C)C)C(=O)N[C@@H](Cc1ccc(O)cc1)C(=O)N[C@H]1CSSC[C@@H](C(=O)N[C@H](C(=O)N[C@@H](Cc2ccccc2)C(=O)N[C@H](C(=O)N[C@H](CCCCNC(=O)CN2CCN(CC(=O)O)CCN(CC(=O)O)CCN(CC(=O)O)CC2)C(=O)O)C(C)(C)O)[C@@H](C)c2c[nH]c3ccc(F)cc23)NC(=O)[C@H](Cc2ccc(O)cc2)NC(=O)[C@H](C(C)C)NC(=O)[C@H](CC(=O)O)NC(=O)[C@H](CC2CCOCC2)NC(=O)[C@H](CC2CCNCC2)NC(=O)CNC(=O)[C@H](C(C)(C)C)NC1=O [compound 450, Ac-hLeu-Y-C-Tbg-G-PipAla-ThpA-D-V-Y-C-(2S,3S-betaMe-5FW)-F-hydroxyVal-dLys(DOTA)-COOH] (Ac-[hLeu]YC[Tle]G[Ala(piperidin-4-yl)][Ala(4-THP)]DVYC[X10]F[Val(3-OH)][dK](DOTA)-OH; disulfide 3-11)
1 to 10 | CC(C)CC[C@H](NC(=O)CCC(=O)O)C(=O)N[C@@H](Cc1ccc(O)cc1)C(=O)N[C@H]1CSSC[C@@H](C(=O)N[C@@H](Cc2c[nH]c3ccc(F)cc23)C(=O)N[C@@H](Cc2ccccc2)C(=O)N[C@H](C(=O)N[C@H](CCCCNC(=O)CN2CCN(CC(=O)O)CCN(CC(=O)O)CCN(CC(=O)O)CC2)C(=O)O)C(C)(C)O)NC(=O)[C@H](Cc2ccc(O)cc2)NC(=O)[C@H](C(C)C)NC(=O)[C@H](CC(=O)O)NC(=O)[C@H](CC2CCOCC2)NC(=O)[C@H](CC2CCNCC2)NC(=O)CNC(=O)[C@H](C(C)(C)C)NC1=O [compound 451, C4diacid-hLeu-Y-C-Tbg-G-PipAla-ThpA-D-V-Y-C-5FW-F-hydroxyVal-dLys(DOTA)-COOH] (Suc-[hLeu]YC[Tle]G[Ala(piperidin-4-yl)][Ala(4-THP)]DVYC[Trp(5-F)]F[Val(3-OH)][dK](DOTA)-OH; disulfide 3-11)
< 1 | CC(=O)N[C@@H](CCC(C)C)C(=O)N[C@@H](Cc1ccc(O)cc1)C(=O)N[C@H]1CSSC[C@@H](C(=O)N[C@@H](Cc2c[nH]c3ccc(F)cc23)C(=O)N[C@@H](Cc2ccccc2)C(=O)N[C@H](C(=O)N[C@H](CCCCNC(=O)CC[C@H](NC(=O)CN2CCN(CC(=O)O)CCN(CC(=O)O)CCN(CC(=O)O)CC2)C(=O)O)C(N)=O)C(C)(C)O)NC(=O)[C@H](Cc2ccc(O)cc2)NC(=O)[C@H](C(C)C)NC(=O)[C@H](CC(=O)O)NC(=O)[C@H](CC2CCOCC2)NC(=O)[C@H](CC2CCNCC2)NC(=O)CNC(=O)[C@H](C(C)(C)C)NC1=O [compound 452, Ac-hLeu-Y-C-Tbg-G-PipAla-ThpA-D-V-Y-C-5FW-F-hydroxyVal-dLys(gE-DOTA)-CONH2] (Ac-[hLeu]YC[Tle]G[Ala(piperidin-4-yl)][Ala(4-THP)]DVYC[Trp(5-F)]F[Val(3-OH)][dK]([γGlu-DOTA])-NH2; disulfide 3-11)
< 1 | CC(=O)N[C@@H](CCC(C)C)C(=O)N[C@@H](Cc1ccc(O)cc1)C(=O)N[C@H]1CSSC[C@@H](C(=O)N[C@@H](Cc2cccc3ccccc23)C(=O)N[C@@H](Cc2ccccc2)C(=O)N[C@H](C(=O)N[C@H](C)C(=O)O)C(C)(C)O)NC(=O)[C@H](Cc2ccc(O)cc2)NC(=O)[C@H](C(C)C)NC(=O)[C@H](CC(=O)O)NC(=O)[C@H](CC2CCN(C(=O)CCOCCOCCOCCOCCNC(=O)CN3CCN(CC(=O)O)CCN(CC(=O)O)CCN(CC(=O)O)CC3)CC2)NC(=O)[C@H](CC2CCNCC2)NC(=O)CNC(=O)[C@H](C(C)(C)C)NC1=O [compound 453, Ac-hLeu-Y-C-Tbg-G-PipAla-Pip(PEG4-DOTA)Ala-D-V-Y-C-1Nal-F-hydroxyVal-dAla-COOH] (Ac-[hLeu]YC[Tle]G[Ala(piperidin-4-yl)][Ala(piperidin-4-yl)]([PEG4-DOTA])DVYC[1Nal]F[Val(3-OH)][dA]-OH; disulfide 3-11)
< 1 | CC(=O)N[C@@H](CCC(C)C)C(=O)N[C@@H](Cc1ccc(O)cc1)C(=O)N[C@H]1CSSC[C@@H](C(=O)N[C@@H](Cc2cccc3ccccc23)C(=O)N[C@@H](Cc2ccccc2)C(=O)N[C@H](C(=O)N[C@H](CCC(=O)O)C(N)=O)C(C)(C)O)NC(=O)[C@H](Cc2ccc(O)cc2)NC(=O)[C@H](C(C)C)NC(=O)[C@H](CC(=O)O)NC(=O)[C@H](CC2CCN(C(=O)CCOCCOCCOCCOCCNC(=O)CN3CCN(CC(=O)O)CCN(CC(=O)O)CCN(CC(=O)O)CC3)CC2)NC(=O)[C@H](CC2CCNCC2)NC(=O)CNC(=O)[C@H](C(C)(C)C)NC1=O [compound 454, Ac-hLeu-Y-C-Tbg-G-PipAla-Pip(PEG4-DOTA)Ala-D-V-Y-C-1Nal-F-hydroxyVal-dGlu-CONH2] (Ac-[hLeu]YC[Tle]G[Ala(piperidin-4-yl)][Ala(piperidin-4-yl)]([PEG4-DOTA])DVYC[1Nal]F[Val(3-OH)][dE]-NH2; disulfide 3-11)
< 1 | CC(=O)N[C@@H](CCC(C)C)C(=O)N[C@@H](Cc1ccc(O)cc1)C(=O)N[C@H]1CSSC[C@@H](C(=O)N[C@@H](Cc2c[nH]c3ccc(F)cc23)C(=O)N[C@@H](Cc2ccccc2C)C(=O)N[C@H](C(=O)N[C@H](CCCCNC(=O)CN2CCN(CC(=O)O)CCN(CC(=O)O)CCN(CC(=O)O)CC2)C(=O)O)C(C)(C)O)NC(=O)[C@H](Cc2ccc(O)cc2)NC(=O)[C@H](C(C)C)NC(=O)[C@H](CC(=O)O)NC(=O)[C@H](CC2CCOCC2)NC(=O)[C@H](CC2CCNCC2)NC(=O)CNC(=O)[C@H](C(C)(C)C)NC1=O [compound 456, Ac-hLeu-Y-C-Tbg-G-PipAla-ThpA-D-V-Y-C-5FW-2MePhe-hydroxyVal-dLys(DOTA)-COOH] (Ac-[hLeu]YC[Tle]G[Ala(piperidin-4-yl)][Ala(4-THP)]DVYC[Trp(5-F)][Phe(2-Me)][Val(3-OH)][dK](DOTA)-OH; disulfide 3-11)
< 1 | CC(=O)N[C@@H](CCC(C)C)C(=O)N[C@@H](Cc1ccc(O)cc1)C(=O)N[C@H]1CSSC[C@@H](C(=O)N[C@@H](Cc2c[nH]c3ccc(Cl)cc23)C(=O)N[C@@H](Cc2ccccc2)C(=O)N[C@H](C(=O)N[C@H](CCCCNC(=O)CN2CCN(CC(=O)O)CCN(CC(=O)O)CCN(CC(=O)O)CC2)C(=O)O)C(C)(C)O)NC(=O)[C@H](Cc2ccc(O)cc2)NC(=O)[C@H](C(C)C)NC(=O)[C@H](CC(=O)O)NC(=O)[C@H](CC2CCOCC2)NC(=O)[C@H](CC2CCNCC2)NC(=O)CNC(=O)[C@H](C(C)(C)C)NC1=O [compound 457, Ac-hLeu-Y-C-Tbg-G-PipAla-ThpA-D-V-Y-C-5ClW-F-hydroxyVal-dLys(DOTA)-COOH] (Ac-[hLeu]YC[Tle]G[Ala(piperidin-4-yl)][Ala(4-THP)]DVYC[Trp(5-Cl)]F[Val(3-OH)][dK](DOTA)-OH; disulfide 3-11)
< 1 | CC(=O)N[C@@H](CCC(C)C)C(=O)N[C@@H](Cc1ccc(O)cc1)C(=O)N[C@H]1CSSC[C@@H](C(=O)N[C@@H](Cc2c[nH]c3ccc(F)cc23)C(=O)N[C@@H](Cc2ccccc2)C(=O)N[C@H](C(=O)N[C@H](CCC(=O)O)C(N)=O)C(C)(C)O)NC(=O)[C@H](Cc2ccc(O)cc2)NC(=O)[C@H](C(C)C)NC(=O)[C@H](CC(=O)O)NC(=O)[C@H](CC2CCN(C(=O)CC[C@H](NC(=O)CN3CCN(CC(=O)O)CCN(CC(=O)O)CCN(CC(=O)O)CC3)C(=O)O)CC2)NC(=O)[C@H](CC2CCNCC2)NC(=O)CNC(=O)[C@H](C(C)(C)C)NC1=O [compound 459, Ac-hLeu-Y-C-Tbg-G-PipAla-Pip(gE-DOTA)Ala-D-V-Y-C-5FW-F-hydroxyVal-dGlu-CONH2] (Ac-[hLeu]YC[Tle]G[Ala(piperidin-4-yl)][Ala(piperidin-4-yl)]([γGlu-DOTA])DVYC[Trp(5-F)]F[Val(3-OH)][dE]-NH2; disulfide 3-11)
